In brackets after ≈: the same amount, converted by molar mass. Like-named read-outs stand apart in the source and are kept apart here.
Legend:
[1] = cited from earlier work; for ε: extinction coefficient at λmax; for ε / λem: literature values (footnotes a, b); for λem: fluorescence emission maximum; for φF: fluorescence quantum yield, literature values (footnotes d-h); for λmax: literature values (footnotes a Gosztola et al., b Holtrup et al.)
[2] = Steady-state electronic absorption and fluorescence spectroscopy; assay type: physicochemical; settings: for E(S1): determined from the average energy of the absorption and emission maxima; for λmax: UV-vis absorption in toluene; for ε: extinction coefficient at λmax; for ε / λem: toluene; for λem: fluorescence emission maximum; for φF: fluorescence quantum yield
Protocol: Steady-state electronic absorption spectra were recorded on a Shimadzu 1601 UV/Vis spectrometer with a 2 mm quartz cuvette. Fluorescence measurements were performed using a PTI Quanta-Master 1 single photon counting spectrofluorimeter in a right angle configuration with a 1 cm quartz cuvette.
The intensity of the S0→>S1 transition increases with the size of the aromatic core, while the energy decreases. The fluorescence spectrum of each chromophore is shown in FIG. 4b and summarized in Table 4 along with that of compounds 1, 3, 5, 7, and 9. A similar trend with the emission maxima moving to longer wavelengths as the size of the aromatic core increases was observed. The electronic absorption and fluorescence properties of all the alkylated chromophores are very similar to those of the parent compounds. No observable trend is apparent for the slight shifts in λmax; however, with the exception of 2, all alkylated compounds have slightly lower extinction coefficients than their parent compounds. The fluorescence emission maxima of the alkylated compounds (Table 4) are similar to those of the parent compounds as reported in the literature. See Hydlovic et al., Phtochem. Photobiol. A., 112: 197-203 (1998); Licchelli et al., Chem. Eur. J., 8: 5161-5169 (2002); Weil et al., Chem. Eur. J., 8: 4742-4750 (2002); and Sadrai et al., J. Phys. Chem., 96: 7988-7996 (1992).

[3] = literature values (footnote a Hayes et al.); cited from earlier work
[4] = literature values (footnotes a Gosztola et al., c Lee et al.), cited from earlier work; for E^−1/2: first reduction potential; for E^2−1/2: second reduction potential
[5] = Electrochemistry (redox potentials); assay type: physicochemical; settings: for E^−1/2: first reduction potential; for E^−1/2 / E^2−1/2 / E^+1/2: dichloromethane, 0.1 M TBAPF6; for E^−1/2 / E^+1/2: Fc/Fc+ (0.46 V vs. SCE) internal standard; for E^2−1/2: second reduction potential; for Reduction potential more negative than that of parent compound: shift versus unsubstituted parent; for E^+1/2: oxidation potential
Protocol: Electrochemical measurements were performed using a CH Instruments Model 622 electrochemical workstation. Measurements for compounds 4, 6, 8, and 10 were performed in dichloromethane containing 0.1 M tetrabutylammonium hexafluorophosphate (TBAPF6) electrolyte. Measurements for 2 were performed in benzonitrile with the same electrolyte. A 1.0 mm diameter platinum disk electrode, platinum wire electrode, and […] reference electrode were employed. The ferrocene/ferrocenium redox couple (Fc/Fc^+, 0.46 V vs. SCE) (see Connelly et al., Chem. Rev., 96: 877-910 (1996)) was used as an internal standard. TBAPF6 was recrystallized twice from ethyl acetate prior to use.
Alkylation (e.g., substitution of the phenethyl groups) ortho to the imide nitrogen atoms appears to render the present compounds somewhat more difficult to reduce, but easier to oxidize (Table 3). The reduction potentials of the disubstituted compounds (2, 4, and 6) are approximately 130 mV more negative than those of their parent compounds. Correspondingly, the oxidation potential of the disubstituted 6 is 40 mV less positive than that of […]. Tetrasubstituted 8 and 10 have reduction potentials that are more negative by ˜200 mV than their unsubstituted analogs. These shifts in redox potentials reasonably arise from the electron-donating nature of the alkylating (e.g., phenethyl) groups. The oxidation and reduction potentials of all alkylated molecules shift in the same direction by nearly the same amount, such that the corresponding HOMO-LUMO energy gap remains the same, as is reflected in their electronic absorption and emission spectra described below.

Solubility in toluene = assay type: physicochemical; settings: for solubility: organic solvent or mixture
Protocol: As used herein, a compound can be considered soluble in a solvent when at least 0.1 mg of the compound can be dissolved in 1 mL of the solvent. Examples of common organic solvents include petroleum ethers; acetonitrile; aromatic hydrocarbons such as benzene, toluene, xylene, and mesitylene; ketones such as acetone, and methyl ethyl ketone; ethers such as tetrahydrofuran, dioxane, bis(2-methoxyethyl)ether, diethyl ether, di-isopropyl ether, and t-butyl methyl ether; alcohols such as methanol, ethanol, butanol, and isopropyl alcohol; aliphatic hydrocarbons such as hexanes; esters such as methyl acetate, ethyl acetate, methyl formate, ethyl formate, isopropyl acetate, and butyl acetate; amides such as dimethylformamide and dimethylacetamide; sulfoxides such as dimethylsulfoxide; halogenated aliphatic and aromatic hydrocarbons such as dichloromethane, chloroform, ethylene chloride, chlorobenzene, dichlorobenzene, and trichlorobenzene; and cyclic solvents such as cyclopentanone, cyclohexanone, and 2-methypyrrolidone. In various embodiments, the present compounds can have good solubility in solvents that are aromatic hydrocarbons such as benzene, toluene, xylene, and mesitylene.
Table 2 below compares the solubilities of several compounds according to the present teachings with their unsubstituted counterparts in toluene.

For CCCCCCCCN1C(=O)c2cccc3cccc(c23)C1=O [Compound 1, N-(n-octyl)-naphthalene-1,8-dicarboximide], the ε [1] is listed as 10647 M⁻¹ cm⁻¹, the λem [1] is listed as 386^a nm and the φF [1] is listed as 0.25^d. The λmax [1] was 350 nm, the “E(S1)” value [2] was 3.38 eV and the τD [3] was <50^a ps. For the same compound, the “E^−1/2” value [4] was −1.40^a.
In the case of CCCCCCCCN1C(=O)c2ccc3c4c(ccc(c24)C1=O)C(=O)N(CCCCCCCC)C3=O [Compound 3, N,N′-bis(n-octyl)-naphthalene-1,8:4,5-bis(dicarboximide)], the ε [1] is listed as 14500 M⁻¹ cm⁻¹, the λem [1] is listed as 407^a nm and the φF [1] is listed as 0.0018^e. For the same compound, the λmax [1] was 382 nm, the “E(S1)” value [2] was 3.15 eV and the τD [3] was <20^a ps. For the same compound, the “E^−1/2” value [4] was −0.48^a and the “E^2−1/2” value [4] was −0.99^a.
For CCCCCCCCN1C(=O)c2cc(CCc3ccccc3)c3c4c(c(CCc5ccccc5)cc(c24)C1=O)C(=O)N(CCCCCCCC)C3=O [Compound 4, N,N′-bis(n-octyl)-2,7-bis(phenethyl)naphthalene-1,8:4,5-bis(dicarboximide)], the “E^−1/2” value [5] was −0.61^, the “E^2−1/2” value [5] was −1.15^ and the “Reduction potential more negative than that of parent compound” value [5] was “approximately 130 mV”. The λmax [2] was 390 nm, the “E(S1)” value [2] was 3.09 eV and the ε [2] was 14000 M⁻¹ cm⁻¹. For the same compound, the λem [2] was 415^ nm and the φF [2] was 0.0005.
For CCCCC(CC)CN1C(=O)c2ccc3c4cccc5cccc(c6ccc(c2c36)C1=O)c54 (stereo not drawn) [Compound 5, N-(2′-ethylhexyl)-perylene-3,4-dicarboximide], the ε [1] is given as 29970 M⁻¹ cm⁻¹, the λem [1] is given as 539^a nm and the φF [1] is given as 0.98^f. For the same compound, the λmax [1] was 505 nm, the E^+1/2 [5] was 1.41 V and the “E(S1)” value [2] was 2.38 eV. For the same compound, the τD [3] was 3500 ± 100^a ps, the “E^−1/2” value [4] was −1.00^c and the “E^2−1/2” value [4] was −1.49^c. It also gave a solubility (Solubility in toluene) of 2000 µg/mL (≈ 4610 µM).
In the case of CCCCCCCCN1C(=O)c2c(CCc3ccccc3)cc3c4cc(CCc5ccccc5)c5c6c(c(CCc7ccccc7)cc(c7cc(CCc8ccccc8)c(c2c37)C1=O)c64)C(=O)N(CCCCCCCC)C5=O [Compound 8, N,N′-bis(n-octyl)-2,5,8,11-tetrakis(phenethyl)perylene-3, 4:9,10-bis(dicarboximide)], the “E^−1/2” value [5] is reported as −0.75^, the E^+1/2 [5] is reported as 1.63 V and the “E^2−1/2” value [5] is reported as −0.93^. The “Reduction potential more negative than that of parent compound” value [5] was about 200 mV, the λmax [2] was 525 nm and the “E(S1)” value [2] was 2.35 eV. The ε [2] was 58000 M⁻¹ cm⁻¹, the λem [2] was 533^ nm and the φF [2] was 0.99. For the same compound, the solubility (Solubility in toluene) was 2000 µg/mL (≈ 1940 µM).
For CCCCC(CC)CN1C(=O)c2c(CCc3ccccc3)cc3c4ccc5c6cc(CCc7ccccc7)c7c8c(c(CCc9ccccc9)cc(c9ccc(c%10cc(CCc%11ccccc%11)c(c2c3%10)C1=O)c4c59)c86)C(=O)N(CC(CC)CCCC)C7=O (stereo not drawn) [Compound 10, N,N′-bis(2-ethylhexyl)-2,5,10,13-tetrakis(phenethyl)terrylene-3, 4:11,12-bis(dicarboximide)], the “E^−1/2” value [5] was −0.83^, the E^+1/2 [5] was 1.1 V and the “Reduction potential more negative than that of parent compound” value [5] was about 200 mV. For the same compound, the λmax [2] was 649 nm, the “E(S1)” value [2] was 1.90 eV and the ε [2] was 80000 M⁻¹ cm⁻¹. For the same compound, the λem [2] was 661^ nm, the φF [2] was 0.95 and the solubility (Solubility in toluene) was 3000 µg/mL (≈ 2600 µM).
In the case of “N,N′-bis(2-ethylhexyl)-terrylene-3,4:11,12-bis(dicarboximide) [Compound 9]”, the ε [1] is given as 93000 M⁻¹ cm⁻¹, the λem [1] is given as 673^b nm and the φF [1] is given as 0.95^h. For the same compound, the λmax [1] was 650 nm, the E^+1/2 [5] was 1.12 V and the “E(S1)” value [2] was 1.88 eV. The “E^−1/2” value [4] was −0.63^c and the Solubility in toluene (Solubility in toluene) was under 1 mg/mL.
For “N,N′-bis(n-octyl)-perylene-3, 4:9,10-bis(dicarboximide) [Compound 7]”, the ε [1] is given as 80000 M⁻¹ cm⁻¹, the λem [1] is given as 535^a nm and the φF [1] is given as 0.99^g. The λmax [1] was 526 nm, the E^+1/2 [5] was 1.67 V and the “E(S1)” value [2] was 2.34 eV. The “E^−1/2” value [4] was −0.50^c, the “E^2−1/2” value [4] was −0.73^c and the Solubility in toluene (Solubility in toluene; toluene) was under 1 mg/mL.

From patent US20110079773A1, “Selectively Functionalized Rylene Imides and Diimides” (priority 2009, published 2011)
